The target of test [1] is OXA-225 (OXA-23 P225S) (Acinetobacter baumannii, UniProt Q9L4P2, P225S). The test can be described thus: Steady-state kinetic analysis of β-lactam hydrolysis by OXA-225. Format: biochemical. As to conditions: for kcat / Km / Ks (competition kinetics with ampicillin as reporter substrate): OXA-225; for Km: 50 mM NaH2PO4, 25 mM NaHCO3, pH 7.4, 25°C; for Ks (competition kinetics with ampicillin as reporter substrate): from IC50 by Cheng-Prusoff.

The subject of test [2] is OXA-23. As to conditions: ref Kaitany et al. [13], cited from earlier work; for Km: 50 mM NaH2PO4, 25 mM NaHCO3, pH 7.4, 25°C; for Ks (competition kinetics with ampicillin as reporter substrate): from IC50 by Cheng-Prusoff.
The subject of test [3] is OXA-24/40. As to conditions: ref Kaitany et al. [13], cited from earlier work; for Km: 50 mM NaH2PO4, 25 mM NaHCO3, pH 7.4, 25°C; for Ks (competition kinetics with ampicillin as reporter substrate): from IC50 by Cheng-Prusoff.
Test [4] relates to OXA-160 (OXA-24/40 P227S). Format: biochemical, Acinetobacter baumannii. As to conditions: for kcat / Km / Ks (competition kinetics with ampicillin as reporter substrate): OXA-160; for Km: 50 mM NaH2PO4, 25 mM NaHCO3, pH 7.4, 25°C; for Ks (competition kinetics with ampicillin as reporter substrate): from IC50 by Cheng-Prusoff.
Test [5] relates to A. baumannii strain that yielded OXA-160. The note with it: A. baumannii strain from which OXA-160 was derived; cited from earlier work.
[6] abbreviates: conversion of OXA-24/40 to OXA-160.

The structures appear in SMILES notation. Values after ≈ are worked out from the molar mass of the structure shown. Marks after values point to notes of the source that are not given here.

Usually kcat stands for the maximal rate divided by the concentration of active sites. A word on the Km: it is the substrate concentration at which the rate is half of its maximum. On to `CC1(C)S[C@@H]2[C@H](NC(=O)[C@H](N)c3ccccc3)C(=O)N2[C@H]1C(=O)O` [Ampicillin, ampicillin], for which the kcat in test [1] is 150 ± 10 s⁻¹; in test [2], 460 ± 10 s⁻¹; in test [3], 480 ± 20 s⁻¹; in test [4], 93 ± 2 s⁻¹. Moreover, the Km in test [1] is 12 ± 1 µM; in test [2], 82 ± 9 µM; in test [3], 180 ± 20 µM; in test [4] it was 13 ± 1 µM. Also, the “gain (increase) in kcat/Km from the P→S substitution” value in test [1] (OXA-225 compared to OXA-23) is listed as ~ 2 fold. The “gain in kcat/Km from the P→S substitution” value in test [4] (OXA-160 compared to OXA-24/40) is listed as ~ 3 fold.

By MIC is commonly meant the smallest concentration in the dilution series that meets the test's criterion for growth inhibition. Consider `C[C@H]1[C@H](NC(=O)/C(=N\OC(C)(C)C(=O)O)c2csc(N)n2)C(=O)N1S(=O)(=O)O` [Aztreonam, aztreonam], for which the kcat in test [1] was 0.79 ± 0.03 s⁻¹; in test [2], 0.24 ± 0.01 s⁻¹; in test [3] it was greater than 0.3 s⁻¹; in test [4], 2.7 ± 0.2 s⁻¹. For the same compound, the values for the Km in test [1], in test [2] and in test [3] were 13 ± 2 µM, 2400 µM and greater than 1500 µM, respectively. In addition, the MIC in test [5] was 128 µg/mL (≈ 294 µM).

With `CO/N=C(\C(=O)N[C@@H]1C(=O)N2C(C(=O)O)=C(COC(C)=O)CS[C@H]12)c1csc(N)n1` [Cefotaxime, cefotaxime], the kcat in test [1] was 3.2 ± 0.2 s⁻¹; in test [2], 5.5 ± 0.1 s⁻¹; in test [3], 0.38 ± 0.01 s⁻¹; in test [4] it was 0.41 ± 0.01 s⁻¹. For the same compound, the Km in test [1] was 100 ± 20 µM; in test [2] it was 340 ± 30 µM; in test [3], 750 ± 70 µM; in test [4], 170 ± 5 µM.

`CC(C)(O/N=C(\C(=O)N[C@@H]1C(=O)N2C(C(=O)[O-])=C(C[n+]3ccccc3)CS[C@H]12)c1csc(N)n1)C(=O)O` [Ceftazidime, ceftazidime]: the kcat in test [1] was 1.4 ± 0.1 s⁻¹; in test [2] it was less than 0.02 s⁻¹; in test [3], less than 0.02 s⁻¹; in test [4], greater than 0.80 s⁻¹. The Km is 1400 µM in test [1] and greater than 3000 µM in test [4]. Moreover, the “hydrolytic activity (in words)” value in test [2] and in test [3] was “no activity” in each case.

As for `CO/N=C(\C(=O)N[C@@H]1C(=O)N2C(C(=O)O)=C(CSc3nc(=O)c(=O)[nH]n3C)CS[C@H]12)c1csc(N)n1` [Ceftriaxone, ceftriaxone], the kcat in test [1] is 0.051 ± 0.002 s⁻¹; in test [2], 0.021 ± 0.001 s⁻¹; in test [3], 0.035 ± 0.001 s⁻¹; in test [4], 0.24 ± 0.01 s⁻¹. The “Ks (competition kinetics with ampicillin as reporter substrate)” value (from here on “Ks”) in test [1] is on record as 0.48 ± 0.05 ^b µM. Moreover, the Km in test [2] is 5.4 ± 0.5 µM; in test [3] it was 110 ± 10 µM; in test [4], 14 ± 0.8 µM.

For `C[C@@H](O)[C@H]1C(=O)N2C(C(=O)O)=C(S[C@@H]3CN[C@H](CNS(N)(=O)=O)C3)[C@H](C)[C@H]12` [Doripenem, doripenem], the kcat in test [1] was 0.026 ± 0.002 s⁻¹; in test [2] it was 0.028 ± 0.003 s⁻¹; in test [3] it was 0.074 ± 0.001 s⁻¹; in test [4], 0.064 ± 0.001 s⁻¹. For the same compound, the “Ks” value in test [1] is reported as 0.027 ± 0.005 ^b µM; in test [2] it was 0.018 ± 0.002 ^b µM; in test [3], 0.024 ± 0.003 ^b µM; in test [4] it was 0.014 ± 0.003 ^b µM. In addition, in test [4] (setting [6]), the “increase in kcat/Km” value worked out at 40%.

On to `C[C@@H](O)[C@H]1C(=O)N2C(C(=O)O)=C(SCCN=CN)C[C@H]12` [Imipenem, imipenem], for which the kcat is 0.39 ± 0.01 s⁻¹ in test [1], 0.49 ± 0.01 s⁻¹ in test [2], 2.1 ± 0.1 s⁻¹ in test [3] and 0.12 ± 0.01 s⁻¹ in test [4]. In addition, the “Ks” value in test [1] is 0.20 ± 0.02 ^b µM; in test [2], 0.20 ± 0.02 ^b µM; in test [3] it was 0.68 ± 0.09 ^b µM; in test [4], 0.043 ± 0.005 ^b µM. For the same compound, in test [4] (setting [6]), the “decrease in kcat/Km” value came to 10%.

For `CO/N=C(\C(=O)N[C@@H]1C(=O)N2C(C(=O)[O-])=C(C[N+]3(C)CCCC3)CS[C@H]12)c1csc(N)n1` [cefepime], the MIC in test [5] was 64 µg/mL (≈ 133 µM).

With `C[C@@H](O)[C@H]1C(=O)N2C(C(=O)O)=C(S[C@@H]3CN[C@H](C(=O)N(C)C)C3)[C@H](C)[C@H]12` [meropenem], the minimal inhibitory concentration (MIC) in test [5] was 16 µg/mL (≈ 41.7 µM).

The values are drawn from paper PMC4476283 (Biochemistry, 2015).
